For eleven compounds, Activity and IC50 results are on record in ChEMBL document CHEMBL4811288, “Linderapyrone: A Wnt signal inhibitor isolated from Lindera umbellata” (Bioorg Med Chem Lett, 2021).

The subject of one experiment is HEK293. As to the kind of experiment: Inhibition of Wnt signalling in HEK293 cells harbouring TCF/beta-catenin luciferase reporter gene assessed as TCF/beta-catenin transcriptional activity at 30 to 60 uM by TOPFlash luciferase assay. It is filed as cell-based. As to conditions: Homo sapiens, dose 30-60 µM. (In a reporter assay the amount or activity of a reporter protein is the signal.)

The subject of another experiment is HT-29. Kind of experiment: Cytotoxicity against human HT-29 cells assessed as cell viability at 1.563 to 50 uM measured after 72 hrs by plate reader method. The format is functional, cell-based. As to conditions: for IC50: HT-29, 72 h.

The source made the active and inactive calls. The calls are words filed in the database; no cut-off is given here.

Turning to `Cc1cc2c(c(=O)o1)[C@H]1C[C@](C)(CC[C@H]1C(C)C)O2`, in the experiment with HEK293, the result was Active. As to `Cc1cc(O)cc(=O)o1`, the outcome in the experiment on HEK293 was inactive. In the case of `CC(C)[C@H]1CC[C@@]2(C)C[C@@H]1c1c(cc(/C=C/c3cccs3)oc1=O)O2`, the result with HT-29 (dose 1.563-50 µM) and with HEK293 was Active. The IC50 is the midpoint of a concentration-inhibition curve. Consider `CC(C)[C@@H]1CC[C@@]2(C)C[C@@H]1c1c(cc(/C=C/c3ccccc3)oc1=O)O2`, for which the IC50 in the experiment on HT-29 came to 32.4 µM. In addition, in the experiment with HEK293, the outcome was Active. On to `COc1cc(/C=C/c2ccccc2)oc(=O)c1`, for which the result with HEK293 was inactive. As to `CC(C)[C@H]1CC[C@@]2(C)C[C@@H]1c1c(cc(/C=C/c3ccccc3)oc1=O)O2`, in the experiment on HT-29, the 50% inhibitory concentration (IC50) turned out to be 8.2 µM. In addition, in the experiment with HEK293, the result was Active.

In the case of `O=C1[C@H](Cc2ccc(O)cc2)N2C(=O)CCN(C(=O)NCc3ccccc3)[C@H]2CN1Cc1cccc2ccccc12`, the IC50 with HT-29 worked out at 10.8 µM. With `Cc1cc2c(c(=O)o1)[C@H]1C[C@](C)(CC[C@@H]1C(C)C)O2`, the outcome in the experiment with HEK293 was Active. For `COc1cc(O)c(C(=O)/C=C/c2ccccc2)c2c1[C@@H]1[C@@H](C(C)C)CC[C@](C)(O)[C@@H]1O2`, in the experiment on HEK293, the result was inactive.

As to `CC(C)[C@H]1CC[C@]2(C)C[C@H]1c1c(cc(/C=C/c3ccccc3)oc1=O)O2`, the result with HEK293 was Active. As for `CC1=CC(=O)C(C(C)C)CC1` (racemic), the outcome with HEK293 was inactive.
